# Experimental data taken from US11230558B2, “Activators of autophagic flux and phospholipase D and clearance of protein aggregates including tau and treatment of proteinopathies” (THE TRUSTEES OF COLUMBIA UNIVERSITY IN THE CITY OF NEW YORK, priority 2015, dated 2022).
# Assays:
# [1] = Photodiode array (PDA) detection in mouse brain; assay type: in vivo; details: FIG. 1
# Excerpt: FIG. 1 is a graph showing a photodiode array (PDA) spectrum of WHYKD8 in mouse brain.
# A photodiode array (PDA) was used to detect WHYKD8 in mouse brain (FIG. 1).
# Autophagy Markers = assay: Autophagy markers (Cyto-ID assay) in HEK 293 cells expressing mKate2 Tau; assay type: cell-based, Human; details: HEK 293 mKate2 Tau cells
# Procedure: The dye used in the kit prevents its accumulation within lysosomes, but enables labelling of vacuoles associated with the autophagy pathway using the LC3 biomarker.
# The test compounds (along with CytoID™ dye and Hoechst stain) were added to the cells and incubated for 3 hours. Reference compounds were also used in each plate, Rapamycin was used for autophagy induction and chloroquine was used for lysosomal inhibition. After 3 hours test compound was aspirated off and kept. Cells were then washed and read using a fluorescence plate reader. Hoescht, Cyto-ID™ and mKate2 were measured using 3 distinct wavelengths on the plate reader. The Hoescht measurement allowed normalisation of results across wells. After reading, test compound was re-added and the cells are left for a further 21 hours. At the 24 hour time point cells were once again washed and plates read using the fluorescence plate reader.
# 2) Test samples were prepared in warm FluoroBrite™ DMEM and with 10% FBS and 1% NEAA (FB-DMEM). […]
# 5) Treatment plate was then washed quickly 3 times with warm FB-DMEM (100 μL/well). […] At this point, the plate was ready for reading. See details in Reading Plate section. Hoescht was read at Excitation wavelength (Ex)=355 nm & Emission wavelength (Em)=446 nm. mKate2 was read at Ex=575 nm & Em=630 nm. Cyto-ID™ was read at Ex=463 nm & Em=534 nm. […]
# PLD2 = biological target: T1, PLD2 (Homo sapiens, UniProt O14939); assay: PLD2 activity: Proteostat/mKate2 with PLD1 inhibitor VU0150669; assay type: cell-based
# T1 construct: endogenous in cells; host or cells: HEK 293 Jump-In cells expressing mKate2-Tau
# Procedure: The assay was run in e18 primary cortical neurons from PLD1 or PLD2 KO mice cultured for 14 days. Alternatively, the assay can be run in the cells described above in the presence of excess PLD1 or PLD2 inhibitor to preclude that particular action from contributing to the effect of the drug.
# 4) On the day of experiment, cells were washed in warmed HBSS twice before media containing test compound (n=3 per compound per dose), inhibitor (355 nM ML298 or 50 nM VU0150669), or vehicle are added to the wells (1.5 mL in 6 well, 600 μL in 12 well). Plates were incubated for 24 hours at 37° C. with 5% CO2.
# [2] = tested on: HEK 293 (Human Embryo Kidney) cell line
# Procedure: The cells were grown in the presence of the antibiotic doxycycline. When the antibiotic is removed the cells produce Tau (which can be quantified), thus allowing the test compounds' effects on Tau's production to be compared. Doxycycline was removed for 72 hours prior to exposure to the test compounds to promote sufficient Tau production. Cells were subsequently plated into plates for each of the assays described below.
# T1 sequence (O14939 whole entry): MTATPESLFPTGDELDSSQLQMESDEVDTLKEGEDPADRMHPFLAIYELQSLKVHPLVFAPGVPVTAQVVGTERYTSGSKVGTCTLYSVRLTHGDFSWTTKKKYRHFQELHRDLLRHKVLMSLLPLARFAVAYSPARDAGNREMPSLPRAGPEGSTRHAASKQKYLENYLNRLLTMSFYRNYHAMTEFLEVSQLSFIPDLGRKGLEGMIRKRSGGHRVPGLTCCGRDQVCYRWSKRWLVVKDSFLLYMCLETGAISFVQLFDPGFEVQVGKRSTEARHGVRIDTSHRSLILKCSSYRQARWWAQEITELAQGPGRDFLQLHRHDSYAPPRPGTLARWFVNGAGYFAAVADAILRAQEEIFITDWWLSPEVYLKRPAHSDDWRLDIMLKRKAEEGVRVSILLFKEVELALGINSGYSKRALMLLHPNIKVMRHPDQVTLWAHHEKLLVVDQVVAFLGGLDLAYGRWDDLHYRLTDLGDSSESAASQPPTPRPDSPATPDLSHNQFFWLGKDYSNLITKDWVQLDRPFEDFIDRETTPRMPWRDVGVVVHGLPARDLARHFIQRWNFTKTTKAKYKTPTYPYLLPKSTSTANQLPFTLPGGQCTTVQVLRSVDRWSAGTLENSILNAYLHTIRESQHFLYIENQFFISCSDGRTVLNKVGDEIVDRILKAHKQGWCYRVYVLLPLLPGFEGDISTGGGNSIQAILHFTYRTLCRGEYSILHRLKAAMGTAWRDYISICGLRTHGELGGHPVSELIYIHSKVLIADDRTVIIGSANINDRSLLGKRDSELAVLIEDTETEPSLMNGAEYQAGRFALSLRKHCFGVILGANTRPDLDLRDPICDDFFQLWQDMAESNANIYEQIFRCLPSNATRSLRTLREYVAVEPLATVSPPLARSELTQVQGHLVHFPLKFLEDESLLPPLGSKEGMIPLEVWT
compound,measurement,setting,value
Oc1ccc(CCNc2ncnc3ccc(Cl)cc23)cc1 [WHYKD8],detection in mouse brain by photodiode array,[1],readily detected
Fc1ccc2ncnc(SC3CCOCC3)c2c1 [WHYKD19],% Increase Autophagy Markers,Autophagy Markers,350%
c1cnc2c(SC3CCCC3)ncnc2c1 [WHYKD36],Proteostat PLD2/PLD1 ratio,PLD2; ratio of Proteostat values,1.5
same,mKate2 PLD2/PLD1 ratio,PLD2; ratio of mKate2 values,1.7
same,CC50,[2],67 µM
